According to patent publication US20230085307A1, “PYRIDAZINONE COMPOUND AND HERBICIDE” (NISSAN CHEMICAL CORPORATION, priority 2019, published 2023):

Experiments:
wild oat [1] = experiment: Test Example 5: herbicidal effect by foliage application, plastic box (Table 20, symbol I); assay type: in vivo, wild oat (Avena fatua); settings: for herbicidal effect on wild oat (I): foliage application, 320 g/ha, three weeks after application
Procedure, shortened: (§1)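 Post-emergence foliar test in sterilized diluvial soil. Compound applied as water-diluted emulsion at a predetermined rate to 14-day-old plants; evaluation at three weeks.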

barnyard grass [2] = experiment: Test Example 4: herbicidal effect by soil treatment (Table 19, symbol H); assay type: in vivo, barnyard grass (Echinochloa crus-galli); settings: amount of applied herbicide 320 g/ha
Procedure, shortened: (§2)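 Scoring uses the grading scale of an earlier test, three weeks post-application. Treatment consists of spraying a diluted emulsion formulation across the surface of sterilized diluvial soil in which seeds are buried near 1.5 cm deep; boxes are kept in a greenhouse between 25° C. and 30° C.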

false cleavers [3] = experiment: Test Example 5: herbicidal effect by foliage application, plastic box (Table 20, symbol Q); assay type: in vivo, false cleavers (Galium spurium); settings: amount of applied herbicide 320 g/ha; foliage application after 14-day growth; evaluated three weeks after application
Procedure, shortened: as §1

redroot pigweed [4] = experiment: Test Example 4: herbicidal effect by soil treatment (Table 19, symbol N); assay type: in vivo, redroot pigweed (Amaranthus retroflexus); settings: amount of applied herbicide 320 g/ha
Procedure, shortened: as §2

redroot pigweed [5] = experiment: Test Example 5: herbicidal effect by foliage application, plastic box (Table 20, symbol N); assay type: in vivo, redroot pigweed (Amaranthus retroflexus); settings: amount of applied herbicide 320 g/ha; foliage application after 14-day growth; evaluated three weeks after application
Procedure, shortened: as §1

Japanese bulrush = experiment: Test Example 1: herbicidal activity, application before weed generation under submerged conditions (Table 16, symbol B); assay type: in vivo, Japanese bulrush (Schoenoplectus juncoides); settings: amount of applied herbicide 320 g/ha
Procedure, shortened: (§3)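 Emulsion formulation, water-diluted to set dose, was put onto the flooded surface (4 cm depth, alluvial soil) the same day weeds were sown and 2.5-leaf rice transplanted. After 3 weeks at 25-30 °C under glass, each species was rated 0 (≤5% kill) to 5 (≥90% kill).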

southern crabgrass = experiment: Test Example 4: herbicidal effect by soil treatment (Table 19, symbol F); assay type: in vivo, southern crabgrass (Digitaria ciliaris); settings: amount of applied herbicide 320 g/ha
Procedure, shortened: as §2

Chinese sprangletop = experiment: Test Example 3: herbicidal effect by foliage application, Wagner pot (Table 18, symbol D); assay type: in vivo, chinese sprangletop (Leptochloa chinensis); settings: for Herbicidal effect on D (Chinese sprangletop), foliage application: amount of applied herbicide 320 g/ha
Procedure, shortened: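 Plants were sown in alluvial soil held under 0.1–0.5 cm standing water and grown 14 days in a greenhouse at 25–30 °C. An emulsifiable formulation, water-diluted to the set dose, was then sprayed onto the foliage, and effects were scored three weeks later using previously defined criteria.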

oval-leafed pondweed = experiment: Test Example 1: herbicidal activity, application before weed generation under submerged conditions (Table 16, symbol C); assay type: in vivo, oval-leafed pondweed (Monochoria vaginalis); settings: amount of applied herbicide 320 g/ha
Procedure, shortened: as §3

velvetleaf [6] = experiment: Test Example 5: herbicidal effect by foliage application, plastic box (Table 20, symbol M); assay type: in vivo, velvetleaf (Abutilon theophrasti); settings: for herbicidal effect on velvetleaf (M): foliage application, 320 g/ha, three weeks after application
Procedure, shortened: as §1

wild oat [7] = experiment: Test Example 4: herbicidal effect by soil treatment (Table 19, symbol I); assay type: in vivo, wild oat (Avena fatua); settings: amount of applied herbicide 320 g/ha
Procedure, shortened: as §2

barnyard grass [8] = experiment: Test Example 5: herbicidal effect by foliage application, plastic box (Table 20, symbol H); assay type: in vivo, barnyard grass (Echinochloa crus-galli); settings: for herbicidal effect on barnyard grass (H): foliage application, 320 g/ha, three weeks after application
Procedure, shortened: as §1

chickweed = experiment: Test Example 5: herbicidal effect by foliage application, plastic box (Table 20, symbol P); assay type: in vivo, common chickweed (Stellaria media); settings: amount of applied herbicide 320 g/ha; foliage application after 14-day growth; evaluated three weeks after application
Procedure, shortened: as §1

lambsquarters = experiment: Test Example 4: herbicidal effect by soil treatment (Table 19, symbol O); assay type: in vivo, lambsquarters (Chenopodium album); settings: amount of applied herbicide 320 g/ha
Procedure, shortened: as §2

blackgrass [9] = experiment: Test Example 5: herbicidal effect by foliage application, plastic box (Table 20, symbol J); assay type: in vivo, blackgrass (Alopecurus myosuroides); settings: for herbicidal effect on blackgrass (J): foliage application, 320 g/ha, three weeks after application
Procedure, shortened: as §1

velvetleaf [10] = experiment: Test Example 4: herbicidal effect by soil treatment (Table 19, symbol M); assay type: in vivo, velvetleaf (Abutilon theophrasti); settings: amount of applied herbicide 320 g/ha
Procedure, shortened: as §2

blackgrass [11] = experiment: Test Example 4: herbicidal effect by soil treatment (Table 19, symbol J); assay type: in vivo, blackgrass (Alopecurus myosuroides); settings: amount of applied herbicide 320 g/ha
Procedure, shortened: as §2

false cleavers [12] = experiment: Test Example 4: herbicidal effect by soil treatment (Table 19, symbol Q); assay type: in vivo, false cleavers (Galium spurium); settings: amount of applied herbicide 320 g/ha
Procedure, shortened: as §2

[13] = amount of applied herbicide 320 g/ha, foliage application after 14-day growth, evaluated three weeks after application

SMILES	H: barnyard grass, herbicidal effect grade (barnyard grass [2])	N: redroot pigweed, herbicidal effect grade (redroot pigweed [4])	Herbicidal effect, B: Japanese bulrush (Japanese bulrush)	F: southern crabgrass, herbicidal effect grade (southern crabgrass)	Herbicidal effect, C: oval-leafed pondweed (oval-leafed pondweed)	I: wild oat, herbicidal effect grade (wild oat [7])	O: lambsquarters, herbicidal effect grade (lambsquarters)	M: velvetleaf, herbicidal effect grade (velvetleaf [10])	J: blackgrass, herbicidal effect grade (blackgrass [11])	herbicidal effect on wild oat (I) (wild oat [1])	Herbicidal effect on D (Chinese sprangletop), foliage application (Chinese sprangletop)	herbicidal effect on velvetleaf (M) (velvetleaf [6])	herbicidal effect on barnyard grass (H) (barnyard grass [8])	herbicidal effect on blackgrass (J) (blackgrass [9])	Q: false cleavers, herbicidal effect grade (false cleavers [12])	other results
CCCC(=O)Oc1c(C)nn(C)c(=O)c1-c1c(-c2ccccc2OC)sc2cc(F)c(F)cc12 [5-012]	1 (Herbicidal rate of 5% or more and less than 20%)	5 (Herbicidal rate of 90% or more (almost completely withered))	3 (Herbicidal rate of 40% or more and less than 70%)	3 (Herbicidal rate of 40% or more and less than 70%)	2 (Herbicidal rate of 20% or more and less than 40%)	3 (Herbicidal rate of 40% or more and less than 70%)	5 (Herbicidal rate of 90% or more (almost completely withered))	3 (Herbicidal rate of 40% or more and less than 70%)	3 (Herbicidal rate of 40% or more and less than 70%)	–	–	–	–	–	–	Herbicidal effect by foliage application, I: wild oat (wild oat [1]; [13]): 2 (Herbicidal rate of 20% or more and less than 40%); Herbicidal effect by foliage application, Q: false cleavers (false cleavers [3]): 5 (Herbicidal rate of 90% or more (almost completely withered)); Herbicidal effect by foliage application, N: redroot pigweed (redroot pigweed [5]): 4 (Herbicidal rate of 70% or more and less than 90%); herbicidal effect on Chinese sprangletop (D) (Chinese sprangletop; 320 g/ha): 2 (Herbicidal rate of 20% or more and less than 40%); Herbicidal effect by foliage application, M: velvetleaf (velvetleaf [6]; [13]): 3 (Herbicidal rate of 40% or more and less than 70%); Herbicidal effect by foliage application, H: barnyard grass (barnyard grass [8]; [13]): 2 (Herbicidal rate of 20% or more and less than 40%); Herbicidal effect by foliage application, P: chickweed (chickweed): 5 (Herbicidal rate of 90% or more (almost completely withered)); Herbicidal effect by foliage application, J: blackgrass (blackgrass [9]; [13]): 4 (Herbicidal rate of 70% or more and less than 90%)
COc1ccc(-c2oc3ccc(Cl)cc3c2-c2c(O)c(C)nn(C)c2=O)cc1 [9-002]	2 (Herbicidal rate of 20% or more and less than 40%)	4 (Herbicidal rate of 70% or more and less than 90%)	3 (Herbicidal rate of 40% or more and less than 70%)	2 (Herbicidal rate of 20% or more and less than 40%)	2 (Herbicidal rate of 20% or more and less than 40%)	0 (Herbicidal rate of 5% or less (almost no effect))	4 (Herbicidal rate of 70% or more and less than 90%)	2 (Herbicidal rate of 20% or more and less than 40%)	1 (Herbicidal rate of 5% or more and less than 20%)	0 (Herbicidal rate of 5% or less (almost no effect))	0 (Herbicidal rate of 5% or less (almost no effect))	5 (Herbicidal rate of 90% or more (almost completely withered))	0 (Herbicidal rate of 5% or less (almost no effect))	0 (Herbicidal rate of 5% or less (almost no effect))	0 (Herbicidal rate of 5% or less (almost no effect))	–
CCOc1ccc(-c2oc3ccc(F)cc3c2-c2c(O)c(C)nn(C)c2=O)cc1 [9-021]	4 (Herbicidal rate of 70% or more and less than 90%)	5 (Herbicidal rate of 90% or more (almost completely withered))	5 (Herbicidal rate of 90% or more (almost completely withered))	4 (Herbicidal rate of 70% or more and less than 90%)	5 (Herbicidal rate of 90% or more (almost completely withered))	0 (Herbicidal rate of 5% or less (almost no effect))	4 (Herbicidal rate of 70% or more and less than 90%)	3 (Herbicidal rate of 40% or more and less than 70%)	4 (Herbicidal rate of 70% or more and less than 90%)	4 (Herbicidal rate of 70% or more and less than 90%)	3 (Herbicidal rate of 40% or more and less than 70%)	5 (Herbicidal rate of 90% or more (almost completely withered))	3 (Herbicidal rate of 40% or more and less than 70%)	1 (Herbicidal rate of 5% or more and less than 20%)	0 (Herbicidal rate of 5% or less (almost no effect))	–
CCCOc1ccc(-c2oc3ccc(F)cc3c2-c2c(O)c(C)nn(C)c2=O)cc1 [9-023]	5 (Herbicidal rate of 90% or more (almost completely withered))	5 (Herbicidal rate of 90% or more (almost completely withered))	5 (Herbicidal rate of 90% or more (almost completely withered))	4 (Herbicidal rate of 70% or more and less than 90%)	5 (Herbicidal rate of 90% or more (almost completely withered))	0 (Herbicidal rate of 5% or less (almost no effect))	5 (Herbicidal rate of 90% or more (almost completely withered))	3 (Herbicidal rate of 40% or more and less than 70%)	0 (Herbicidal rate of 5% or less (almost no effect))	3 (Herbicidal rate of 40% or more and less than 70%)	3 (Herbicidal rate of 40% or more and less than 70%)	5 (Herbicidal rate of 90% or more (almost completely withered))	5 (Herbicidal rate of 90% or more (almost completely withered))	4 (Herbicidal rate of 70% or more and less than 90%)	0 (Herbicidal rate of 5% or less (almost no effect))	–
CSc1ccc(-c2oc3ccc(F)cc3c2-c2c(O)c(C)nn(C)c2=O)cc1 [9-037]	2 (Herbicidal rate of 20% or more and less than 40%)	5 (Herbicidal rate of 90% or more (almost completely withered))	0 (Herbicidal rate of 5% or less (almost no effect))	4 (Herbicidal rate of 70% or more and less than 90%)	0 (Herbicidal rate of 5% or less (almost no effect))	0 (Herbicidal rate of 5% or less (almost no effect))	2 (Herbicidal rate of 20% or more and less than 40%)	3 (Herbicidal rate of 40% or more and less than 70%)	0 (Herbicidal rate of 5% or less (almost no effect))	5 (Herbicidal rate of 90% or more (almost completely withered))	2 (Herbicidal rate of 20% or more and less than 40%)	5 (Herbicidal rate of 90% or more (almost completely withered))	4 (Herbicidal rate of 70% or more and less than 90%)	2 (Herbicidal rate of 20% or more and less than 40%)	0 (Herbicidal rate of 5% or less (almost no effect))	–
